From patent publication US20120020930A1, “METHODS FOR THE PREPARATION OF ADIPOSE DERIVED STEM CELLS AND UTILIZING SAID CELLS IN THE TREATMENT OF DISEASES” (CELLERIX, S.A., priority 2008, published 2012)
Entries after “also recorded” stand apart in the source; their conditions may differ.

Columns and labels:
ASC [1] = assay: IDO expression in ASC upon stimulation with pro-inflammatory mediators (RT-PCR and Western Blot); type: cell-based; settings: TNF-α at 50 ng/mi
ASC [2] = assay: Transwell migration of ASC towards SDF-1 in the presence of Diprotin A; type: cell-based, human; settings: Diprotin A 0, 1, 5, 10 mM on upper surface; SDF-1 50 μM in well; 24 h; crystal violet stained cells counted; FIG. 1
Procedure: ASC were obtained from lipoaspirates obtained from human adipose tissue from healthy adult donors. Lipoaspirates were washed twice with PBS, and digested at 37° C. for 30 minutes with 0.075% collagenase (Type I, Invitrogen, Carlsbad, Calif.) in PBS. The digested sample was washed with 10% of fetal bovine serum (FBS), treated with 160 mM CINH4, suspended in culture medium (DMEM containing 10% FBS) and filtered through a 40-μm nylon mesh. Cells were seeded (2-3×10^4 cells/cm^2) onto tissue culture flasks and expanded at 37° C. and 5% CO2, changing the culture medium every 7 days. Cells were passed to a new culture flask (1,000 cells/cm^2) when cultures reached 90% of confluence. Cells were phenotypically characterized by their capacity to differentiate into chondro-, osteo-, and adipo-genic lineages. A pool of 6 ASC samples from different donors (culture passage 4-6) was used.
ASC (10^4 cells) were seeded onto the upper surface of a Transwell permeable support insert with a pore size of 8 μm. The permeable supports were inserted into a 24 well plate. […]
Stained cells (i.e. those having migrated to the underside of the permeable support) were then counted. Total number of counted cells per experimental condition is shown (two inserts per condition were counted).

Row | Substance | IDO expression (ASC [1]) | number of migrating cells (ASC migration to the underside of the permeable support) (ASC [2])
1 | TNF-α | did not induce IDO expression | –
2 | Ile-Pro-Ile [Diprotin A] | – | increased migration of cells; also recorded: increased in proportion to the amount of Diprotin A
